Tests used:
Type in all cases: cell-based, human
[1] = system: PXB-cells; experiment: Observation of fat droplets in PXB-cells by photomicrograph; details: 2% DMSO in medium, 5 days culture
Method: The following day of seeding, medium A was removed. Instead, 500 μL of medium B (DMSO (+)) or medium C (DMSO (−)) was added. The plate was gently placed in an incubator (37° C., 5% CO2) and the cells were cultured for 5 days. After completion of culture, an image of the cells was taken by a photomicrographic camera. Then, the culture supernatant was recovered and subjected to analysis for lipoprotein in the culture supernatant described below.

[2] = system: PXB-cells; experiment: Analysis of lipoprotein in culture supernatant (LipoSEARCH gel filtration HPLC) of PXB-cells; details: for content of Large-VLDL among the VLDL in the culture supernatant (neutral fat (triglyceride)): Large-VLDL alone changed
Method: The following day of seeding, medium A was removed. Instead, 500 μL of medium B (DMSO (+)) or medium C (DMSO (−)) was added. The plate was gently placed in an incubator (37° C., 5% CO2) and the cells were cultured for 5 days. After completion of culture, an image of the cells was taken by a photomicrographic camera. Then, the culture supernatant was recovered and subjected to analysis for lipoprotein in the culture supernatant described below. Lipoproteins contained in the culture supernatants of PXB-cells, HepG2 cells and HuH7 cells were analyzed by using LipoSEARCH (registered trademark) method (Skylight Biotech, Inc.). After completion of the culture mentioned above, the medium used in the culture was removed and 500 μL of medium D for analysis was added. The culture plate was gently placed in an incubator (37° C., 5% CO2) and the cells were cultured for 2 days. Thereafter, the culture supernatant was recovered, lipoproteins contained in the culture supernatant (80 μL) were fractionated into 4 types of subgroups, CM, VLDL, LDL and HDL fractions, by gel filtration HPLC. Cholesterol and neutral fat (triglyceride) contained in individual fractions were quantified by online enzyme reactions. Concentration analysis was carried out in accordance with the computer program specifically developed by Skylight Biotech, Inc. Note that, in the enzymatic reaction, Diacolor Liquid TG-S (manufactured by Toyobo Co., Ltd.) was used. As standard sera for cholesterol and neutral fat (triglyceride) concentration in CM, VLDL, LDL and HDL, the sera manufactured by Kyowa Hakko Kirin Co., Ltd. were used. PXB-cells were diluted with medium A. The diluted cell suspension (500 μL) was gently poured to individual wells of a culture plate. The plate was allowed to stand still for about 20 minutes until the cells were slightly in contact with the bottom surface of the wells and gently placed to an incubator (37° C., 5% CO2) to culture the cells. The following day of seeding, medium A was removed and 500 μL of medium B (DMSO (+)) was added. The plate was gently placed in an incubator (37° C., 5% CO2) and the cells were cultured for 13 days. After completion of culture, the cells were used in the following test. A medium of PXB-cells prepared above was exchanged with medium D containing 0.75 mM oleic acid, and gently placed in an incubator (37° C., 5% CO2). PXB-cells were cultured for two days. PXB-cells were prepared in the same manner as in the method set forth in “Preparation of cells” in the above step (1-1) except that the period of culture in medium B (DMSO (+)) was set at 6 days and subjected to the following test. The mediums for the PXB-cells prepared above were exchanged with mediums D containing 1 nM or 5 nM lomitapide respectively and gently placed in an incubator (37° C., 5% CO2). PXB-cells were cultured for two days. PXB-cells were prepared in the same manner as in the method set forth in “Preparation of cells” in the above step (1-1) and subjected to the following test. The mediums of the PXB-cells prepared above were exchanged with mediums D containing 10 μM, 50 μM or 100 μM fenofibrate and gently placed in an incubator (37° C., 5% CO2). The PXB-cells were cultured for 2 days. After completion of the culture, cholesterol and neutral fat (triglyceride) in the culture supernatant and cells were measured in accordance with the method described in the above section “Analysis of lipoprotein in culture supernatant” and “Analysis of lipoprotein in cells”, respectively.

[3] = system: PXB-cells; experiment: Analysis of lipoprotein in cells (intracellular triglyceride and cholesterol, Cholestest) of PXB-cells; details: 2 days, data not shown
Method: Triglyceride in cells was measured by use of Cholestest (registered trademark) TG (Sekisui Medical Co., Ltd.) in accordance with the instruction by the manufacturer. More specifically, the cells were washed with PBS, and then, completely dewatered (stored at -80° C. until measurement). To each well containing the cells, 200 μL of TG enzyme solution (1) was added. A reaction was allowed to proceed while keeping the cells warm at 37° C. for 10 minutes (free glycerol was removed) Then, the cells were torn away by pipetting, transferred to a centrifuge tube and centrifuged at 10,000 rpm×10 minutes. Then, the supernatant (7.5 μL) was transferred to a 96-well microplate. To this, 68 μL of TG enzyme solution (1) was added and the microplate was kept warm at 37° C. for 10 minutes to remove completely free glycerol. Then, 25 μL of TG enzyme solution (2) was added and kept the plate warm at 37° C. for 10 minutes. The resultant reaction product was subjected to measurement of absorbance at 550 nm. The content of triglyceride was calculated based on HDL-[…] as the reference (triglyceride concentration of HDL-[…] was 52.26 mg/dL). Intracellular cholesterol was measured by use of Cholestest (registered trademark) CHO (Sekisui Medical Co., Ltd.) in accordance with the instruction by the manufacturer. […] The resultant reaction product was subjected to measurement of absorbance at 550 nm. The content of cholesterol was calculated based on HDL-[…] as the standard ([…] of HDL-[…] was 152.67 mg/dL). […] After completion of culture, the total cholesterol and total neutral fat (triglyceride) in culture supernatant and in cells were measured in accordance with the methods described in the sections “Analysis of lipoprotein in culture supernatant” and “Analysis of lipoprotein in cells”. […] After completion of the culture, cholesterol and neutral fat (triglyceride) in the culture supernatant and cells were measured in accordance with the method described in the above sections “analysis of lipoprotein in culture supernatant” and “analysis of lipoprotein in cells”, respectively. […]

## C[S+](C)[O-] [DMSO, dimethyl sulfoxide]
[1]
  number of fat droplets in PXB-cells, medium B (DMSO (+)) compared to medium C (DMSO (−)): about double
[2]; 2% DMSO in medium, 5 days culture, culture supernatant
  secretion of total neutral fat (triglyceride) in lipoproteins, medium B (DMSO (+)) relative to medium C (DMSO (−)): about 9 times

## O=C(NC1CCN(CCCCC2(C(=O)NCC(F)(F)F)c3ccccc3-c3ccccc32)CC1)c1ccccc1-c1ccc(C(F)(F)F)cc1 [lomitapide]
[3]; lomitapide (1 nM or 5 nM)
  content of neutral fat (triglyceride) in the cells: no change
[2]; 5 nM lomitapide in medium D, 2 days, PXB-cells pre-cultured 6 days in medium B (DMSO (+)), vs ethanol control
  VLDL content of the culture supernatant (neutral fat (triglyceride)): significantly decreases
[2]; lomitapide in medium D, 2 days
  content of Large-VLDL among the VLDL in the culture supernatant (neutral fat (triglyceride)): significantly decreased

## CCCCCCCC/C=C\CCCCCCCC(=O)O [oleic acid]
[3]; 0.75 mM oleic acid
  content of cholesterol in the cells: change similarly to the content of neutral fat (triglyceride)
  content of neutral fat (triglyceride) in the cells: significantly increased
[2]; 0.75 mM oleic acid in medium D, 2 days
  content of Large-VLDL among the VLDL in the culture supernatant (neutral fat (triglyceride)): significantly increased
[2]; 0.75 mM oleic acid in medium D, 2 days, PXB-cells pre-cultured 13 days in medium B (DMSO (+)), vs medium D control
  VLDL content in the culture supernatant (neutral fat (triglyceride)): significantly increased
[2]; 0.75 mM oleic acid, 2 days, data not shown
  content of cholesterol in the culture supernatant: change similarly to the content of neutral fat (triglyceride)

From patent publication US20250263667A1, “HUMAN FATTY-LIVER MODEL CELLS FOR USE IN SCREENING METHOD” (PhoenixBio Co., Ltd., priority 2021, published 2025)
